Experimental data: US20150165400A1, “CRYSTALLISATION PROCESS” (University of Bradford, priority 2012, published 2015)
One block for each molecule: values may come before it.

Assays:
[1] = In-vitro dissolution profile, USP-XXVI paddle method; type: physicochemical; settings: water, 600 ml, 75 rpm, 37° C., 20 mg artemisinin
[2] = Effect of externally added solvents on extruded triclinic form, stability by PXRD; type: physicochemical
Text: Effect of different solvents such as acetone, ethanol, cyclohexane, methanol and water on extruded triclinic form was studied. […] FIGS. 21 to 25 show the PXRD patterns highlighting the effect of adding the different solvents to extrude. It was observed that conversion rate from triclinic to orthorhombic form was proportional to solubility of orthorhombic form in each solvent.

[3] = Pharmacokinetic study of artemisinin, plasma level by HPLC; type: in vivo, albino wistar rats; settings: rats, 100 mg artemisinin in 0.5% aqueous CMC
Experimental: A pharmacokinetic study of artemisinin was carried out. The study was performed using 36 healthy albino wistar rats with a weight ranging from 180 to 200 grams. The wistar rats were taken and divided into three groups; a control group, the orthorhombic crystal form group and the triclinic crystal form group. A sparse technique was used to collect blood samples (n=6). The animals were housed in standard metabolism cages and were subject to fasting conditions for 12 hours before dosing. The animals were allowed free movement and access to water throughout the experiment. […] At predetermined time intervals, blood samples were obtained by the retro orbital technique and collected in EDTA tubes. Plasma was obtained by centrifugation of the blood sample at 3500 revolutions per minute (rpm) for 15 minutes. A volume of 200 μl of plasma was pipetted into Eppendorf tubes and 100 μl of internal standard (artemether solution […]) and 700 μl methanol were added. […] The collected sample was then subjected to analysis by HPLC. […] The HPLC system consisted of an Agilent 1200 series, UV detector (Agilent Technologies, […], Wokingham, United Kingdom) set at 210 nm and a C18 column (250×4.6 mm). […] The plasma concentration-time profiles were plotted and Areas Under Curve (AUC) were calculated (shown in FIG. 35) using the Trapezoidal rule.

[4] = Stability study of triclinic form recrystallised from cyclohexane, PXRD; type: physicochemical; settings: recrystallised from cyclohexane at 80° C., vacuum dried
Text: The product obtained was vacuum dried and the crystal form was confirmed by PXRD.

dissolution rate in comparison with starting material [1]: four times greater
transformation to orthorhombic form in the sample containing water ([2]; 0.2 ml water added to 3 g extruded sample): no transformation was observed
Cmax ([3]; albino Wistar, rat, plasma, po, 100 mg, plasma, read-out: average maximum concentration (Cmax)): 31000 ng/mL
Tmax ([3]; albino Wistar, rat, plasma, po, 100 mg, plasma, read-out: average time where the concentration reached a maximum (Tmax)): 5 h
AUC compared with the orthorhombic form ([3]; oral): two fold increase
Structure (SMILES): C[C@@H]1CC[C@H]2[C@@H](C)C(=O)O[C@@H]3O[C@@]4(C)CC[C@@H]1[C@]32OO4 [triclinic form, artemisinin]
rank order of transformation from triclinic to orthorhombic form ([2]; 0.2 ml solvent added to 3 g extruded sample): acetone>methanol>ethanol>cyclohexane>water

average maximum concentration (Cmax) ([3]; oral, plasma): 16000 ng/mL
average time where the concentration reached a maximum (Tmax) ([3]; oral, plasma): 4 h
Structure (SMILES): C[C@@H]1CC[C@H]2[C@@H](C)C(=O)O[C@@H]3O[C@@]4(C)CC[C@@H]1[C@]32OO4 [orthorhombic form, artemisinin, reference compound]

Structure (SMILES): C[C@@H]1CC[C@H]2[C@@H](C)C(=O)O[C@@H]3O[C@@]4(C)CC[C@@H]1[C@]32OO4 [artemisinin]
stability of crystal form (transformation to orthorhombic form) [4]: transformed to orthorhombic form within a week
